Patent publication US20240400591A1 (Jacobio Pharmaceuticals Co., Ltd., priority 2021, published 2024)
Read-outs that look alike come from different tables or passages of the source.

Key:
[1] = tested on: NUGC-3_P53_Luc single clonal cell line (p53 Y220C); assay: Reporter gene assay (p53 RE luciferase); assay type: cell-based
Outline: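 Luminescence normalised to DMSO-only (0%) and 10 μM Ref-1a (100%) wells gives % activity, fitted by 4-parameter logistic or Excel to yield EC50 at 50%. Reporter line: NUGC-3 with p53 response element-luc2P, compound-treated 6 h at 37 °C.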

[2] = tested on: NUGC3 (P53 Y220C); assay: Cell viability assay (CellTiter-Glo, 6 days), NUGC3; assay type: cell-based
Outline: (§1)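 After a 6-day compound exposure following overnight plating, ATP luminescence (CellTiter-Glo) gave percent viability relative to DMSO-treated cells and cell-free medium controls. IC50 = concentration at 50% viability, from 4-parameter logistic or Excel fit.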

[3] = target: T1, His-p53 Y220C (94-294) protein (Homo sapiens, UniProt P04637, Y220C); assay: In vitro DNA binding assay (HTRF); assay type: biochemical; conditions: % activation normalized to 2 μM Ref-1a high control
T1 construct: His-p53 Y220C (94-294) protein

[4] = tested on: NUGC4 (P53 WT); assay: Cell viability assay (CellTiter-Glo, 6 days), NUGC4; assay type: cell-based
Outline: as §1

[5] = Homo sapiens, NUGC-3, 6 h, luciferase reporter, 6 hours, normalized to Ref-1a (10 μM) high control, read-out: p53(Y220C)_NUGC-3 EC50
[6] = Homo sapiens, NUGC-3, 144 h, cell viability, 6 days, CellTiter-Glo, read-out: NUGC3 (P53 Y220C) IC50
[7] = Homo sapiens, NUGC-4, 144 h, cell viability, 6 days, CellTiter-Glo, read-out: NUGC4 (P53 WT) IC50
[8] = Homo sapiens, NUGC-3, luciferase reporter, 6 hours, normalized to Ref-1a (10 μM) high control, read-out: p53(Y220C)_NUGC-3 EC50

Question: Which results are given for `CNC(=O)c1ccc(NCC#Cc2sc3c(N[C@H]4CCN(C)C[C@H]4F)cccc3c2CC(F)(F)F)c(OC)c1` [Example 112, 4-((3-(7-(((3R,4S)-3-fluoro-1-methylpiperidin-4-yl)amino)-3-(2,2,2-trifluoroethyl)benzo[b]thiophen-2-yl)prop-2-yn-1-yl)amino)-3-methoxy-N-methylbenzamide]?
Answer: EC50 [1, 5]: 0.27 µM; IC50 [2, 6]: 2.09 µM; EC50 [3]: 135 nM; IC50 [4, 7]: 7.51 µM

Question: Which results are given for `CNC(=O)c1ccc(NCC#Cc2sc3c(N[C@@H]4CCN(C)C[C@@H]4F)cccc3c2CC(F)(F)F)c(OC)c1` [Example 113, 4-((3-(7-(((3S,4R)-3-fluoro-1-methylpiperidin-4-yl)amino)-3-(2,2,2-trifluoroethyl)benzo[b]thiophen-2-yl)prop-2-yn-1-yl)amino)-3-methoxy-N-methylbenzamide]?
Answer: EC50 [1, 5]: 0.07 µM; IC50 [2, 6]: 0.93 µM; EC50 [3]: 44 nM; IC50 [4, 7]: 6.1 µM

Question: What does the source list for `COc1cc(P(C)(C)=O)ccc1NCC#Cc1sc2c(N[C@H]3CCN(C)C[C@H]3F)cccc2c1CC(F)(F)F` [Example 114, (4-((3-(7-(((3R,4S)-3-fluoro-1-methylpiperidin-4-yl)amino)-3-(2,2,2-trifluoroethyl)benzo[b]thiophen-2-yl)prop-2-yn-1-yl)amino)-3-methoxyphenyl)dimethylphosphine oxide]?
Answer: EC50 [1, 5]: 0.12 µM; IC50 [2, 6]: 1.24 µM; EC50 [3]: 57 nM; IC50 [4, 7]: 10.5 µM

Question: Which results are given for `COc1cc(P(C)(C)=O)ccc1NCC#Cc1sc2c(N[C@@H]3CCN(C)C[C@@H]3F)cccc2c1CC(F)(F)F` [Example 115, (4-((3-(7-(((3S,4R)-3-fluoro-1-methylpiperidin-4-yl)amino)-3-(2,2,2-trifluoroethyl)benzo[b]thiophen-2-yl)prop-2-yn-1-yl)amino)-3-methoxyphenyl)dimethylphosphine oxide]?
Answer: EC50 [1, 5]: 0.03 µM; IC50 [2, 6]: 0.24 µM; EC50 [3]: 23 nM; IC50 [4, 7]: 8.58 µM

Question: `COc1cc(P2(=O)CCCC2)ccc1NCC#Cc1sc2c(N[C@@H]3CCN(C)C[C@@H]3F)cccc2c1CC(F)(F)F` [Example 117, 1-(4-((3-(7-(((3S,4R)-3-fluoro-1-methylpiperidin-4-yl)amino)-3-(2,2,2-trifluoroethyl)benzo[b]thiophen-2-yl)prop-2-yn-1-yl)amino)-3-methoxyphenyl)phospholane 1-oxide] was tested. Which EC50 ([1]; Homo sapiens, NUGC-3, 6 h, read-out: p53(Y220C)_NUGC-3 EC50 (μM)) did it give?
Answer: The EC50 was 0.17 µM.

Question: What about the IC50 ([2]; Homo sapiens, NUGC-3, 144 h, read-out: NUGC3 (P53 Y220C) IC50 (μM)) of the same compound?
Answer: The IC50 was 0.93 µM.

Question: What about the EC50 [3] of the same compound?
Answer: The EC50 was 34 nM.

Question: What about the IC50 ([4]; Homo sapiens, NUGC-4, 144 h, read-out: NUGC4 (P53 WT) IC50 (μM)) of the same compound?
Answer: The IC50 was 8.54 µM.

Question: Which results are given for `COc1cc(P(C)(C)=O)ccc1NCC#Cc1sc2c(NC3C4CCC3CN(C)C4)cccc2c1CC(F)(F)F` (stereo not drawn) [Example 124, (3-methoxy-4-((3-(7-((3-methyl-3-azabicyclo[3.2.1]octan-8-yl)amino)-3-(2,2,2-trifluoroethyl)benzo[b]thiophen-2-yl)prop-2-yn-1-yl)amino)phenyl)dimethylphosphine oxide]?
Answer: EC50 [1, 8]: 0.47 µM; IC50 [2, 6]: 2.31 µM; EC50 [3]: 143 nM; IC50 [4, 7]: 7.23 µM

Question: Which results are given for `COc1cc(P(C)(C)=O)ccc1NCC#Cc1sc2c(N[C@H]3CCN(C)C[C@H]3C)cccc2c1CC(F)(F)F` [Example 125, (4-((3-(7-(((3R,4S)-1,3-dimethylpiperidin-4-yl)amino)-3-(2,2,2-trifluoroethyl)benzo[b]thiophen-2-yl)prop-2-yn-1-yl)amino)-3-methoxyphenyl)dimethylphosphine oxide]?
Answer: EC50 [1, 5]: 0.18 µM; IC50 [2, 6]: 1.27 µM; EC50 [3]: 54 nM; IC50 [4, 7]: 2.57 µM

Question: Which EC50 [1, 5] does the source give for `COc1cc(P(C)(C)=O)ccc1NCC#Cc1sc2c(N[C@@H]3CCN(C)C[C@@H]3C)cccc2c1CC(F)(F)F` [Example 126, (4-((3-(7-(((3S,4R)-1,3-dimethylpiperidin-4-yl)amino)-3-(2,2,2-trifluoroethyl)benzo[b]thiophen-2-yl)prop-2-yn-1-yl)amino)-3-methoxyphenyl)dimethylphosphine oxide] here?
Answer: Its EC50 is 0.08 µM.

Question: And the IC50 [2, 6]?
Answer: Its IC50 is 0.63 µM.

Question: And the EC50 [3]?
Answer: The EC50 was 36 nM.

Question: What about the IC50 [4, 7] of the same compound?
Answer: Its IC50 is 2.74 µM.

Question: With `COc1cc(P(C)(C)=O)ccc1NCC#Cc1sc2c(N[C@H]3CCN(C)C[C@@H]3C)cccc2c1CC(F)(F)F` [Example 127, (4-((3-(7-(((3S,4S)-1,3-dimethylpiperidin-4-yl)amino)-3-(2,2,2-trifluoroethyl)benzo[b]thiophen-2-yl)prop-2-yn-1-yl)amino)-3-methoxyphenyl)dimethylphosphine oxide] as the compound, how does the EC50 [1, 5] read?
Answer: The EC50 was 0.1 µM.

Question: And the IC50 [2, 6]?
Answer: Its IC50 is 0.33 µM.

Question: And the EC50 [3]?
Answer: Its EC50 is 38 nM.

Question: And the IC50 [4, 7]?
Answer: Its IC50 is 2.26 µM.

Question: `COc1cc(P(C)(C)=O)ccc1NCC#Cc1sc2c(N[C@@H]3CCN(C)C[C@H]3C)cccc2c1CC(F)(F)F` [Example 128, (4-((3-(7-(((3R,4R)-1,3-dimethylpiperidin-4-yl)amino)-3-(2,2,2-trifluoroethyl)benzo[b]thiophen-2-yl)prop-2-yn-1-yl)amino)-3-methoxyphenyl)dimethylphosphine oxide] was tested. Which EC50 [1, 5] did it give?
Answer: Its EC50 is 0.1 µM.

Question: What about the IC50 [2, 6] of the same compound?
Answer: Its IC50 is 0.87 µM.

Question: And the EC50 [3]?
Answer: The EC50 was 53 nM.

Question: What about the IC50 [4, 7] of the same compound?
Answer: Its IC50 is 2.26 µM.

Question: For `COc1cc(P(C)(C)=O)ccc1NCC#Cc1sc2c(NC3C(C)CN(C)CC3C)cccc2c1CC(F)(F)F` (stereo not drawn) [Example 131, (3-methoxy-4-((3-(3-(2,2,2-trifluoroethyl)-7-(((Z)-1,3,5-trimethylpiperidin-4-yl)amino)benzo[b]thiophen-2-yl)prop-2-yn-1-yl)amino)phenyl)dimethylphosphine oxide], which EC50 [1, 8] is on record?
Answer: Its EC50 is 0.07 µM.

Question: What about the IC50 [2, 6] of the same compound?
Answer: Its IC50 is 0.66 µM.

Question: And the EC50 [3]?
Answer: The EC50 was 33 nM.

Question: And the IC50 [4, 7]?
Answer: Its IC50 is 2.54 µM.

Question: `COc1cc(P(C)(C)=O)ccc1NCC#Cc1sc2c(NC3C(C)CN(C)CC3C)cccc2c1CC(F)(F)F` (stereo not drawn) [Example 132, (3-methoxy-4-((3-(3-(2,2,2-trifluoroethyl)-7-(((E)-1,3,5-trimethylpiperidin-4-yl)amino)benzo[b]thiophen-2-yl)prop-2-yn-1-yl)amino)phenyl)dimethylphosphine oxide] was tested. Which EC50 ([1]; luciferase reporter, 6 hours, normalized to Ref-1a (10 μM) high control, read-out: p53(Y220C)_NUGC-3 EC50) did it give?
Answer: The EC50 was 0.26 µM.

Question: And the IC50 ([2]; cell viability, 6 days, CellTiter-Glo, read-out: NUGC3 (P53 Y220C) IC50)?
Answer: The IC50 was 0.82 µM.

Question: And the EC50 [3]?
Answer: The EC50 was 59 nM.

Question: And the IC50 ([4]; cell viability, 6 days, CellTiter-Glo, read-out: NUGC4 (P53 WT) IC50)?
Answer: Its IC50 is 3.08 µM.

Question: What does the source list for `CCN1CC[C@@H](Nc2cccc3c(CC(F)(F)F)c(C#CCNc4ccc(P(C)(C)=O)cc4OC)sc23)[C@@H](F)C1` [Example 135, (4-((3-(7-(((3S,4R)-1-ethyl-3-fluoropiperidin-4-yl)amino)-3-(2,2,2-trifluoroethyl)benzo[b]thiophen-2-yl)prop-2-yn-1-yl)amino)-3-methoxyphenyl)dimethylphosphine oxide]?
Answer: EC50 [1, 5]: 0.04 µM; IC50 [2, 6]: 1.16 µM; EC50 [3]: 26 nM; IC50 [4, 7]: 3.62 µM

Question: For `CCN1CC[C@H](Nc2cccc3c(CC(F)(F)F)c(C#CCNc4ccc(P(C)(C)=O)cc4OC)sc23)[C@H](F)C1` [Example 136, (4-((3-(7-(((3R,4S)-1-ethyl-3-fluoropiperidin-4-yl)amino)-3-(2,2,2-trifluoroethyl)benzo[b]thiophen-2-yl)prop-2-yn-1-yl)amino)-3-methoxyphenyl)dimethylphosphine oxide], which EC50 [1, 5] is on record?
Answer: The EC50 was 0.24 µM.

Question: And the IC50 [2, 6]?
Answer: Its IC50 is 1.63 µM.

Question: What about the EC50 [3] of the same compound?
Answer: Its EC50 is 46 nM.

Question: What about the IC50 [4, 7] of the same compound?
Answer: Its IC50 is 4.88 µM.

Question: What does the source list for `CN1CC[C@@H](Nc2cccc3c(CC(F)(F)F)c(C#CCNc4ccc(P(C)(C)=O)cc4OC(F)(F)F)sc23)[C@@H](F)C1` [Example 138, (4-((3-(7-(((3S,4R)-3-fluoro-1-methylpiperidin-4-yl)amino)-3-(2,2,2-trifluoroethyl)benzo[b]thiophen-2-yl)prop-2-yn-1-yl)amino)-3-(trifluoromethoxy)phenyl)dimethylphosphine oxide]?
Answer: EC50 [1, 5]: 0.07 µM; IC50 [2, 6]: 0.88 µM; EC50 [3]: 34 nM; IC50 [4, 7]: 11.1 µM

Question: Which EC50 [1, 5] does the source give for `COc1cc(P(=O)(C2CC2)C2CC2)ccc1NCC#Cc1sc2c(N[C@@H]3CCN(C)C[C@@H]3F)cccc2c1CC(F)(F)F` [Example 141, dicyclopropyl(4-((3-(7-(((3S,4R)-3-fluoro-1-methylpiperidin-4-yl)amino)-3-(2,2,2-trifluoroethyl)benzo[b]thiophen-2-yl)prop-2-yn-1-yl)amino)-3-methoxyphenyl)phosphine oxide] here?
Answer: Its EC50 is 0.09 µM.

Question: What about the IC50 [2, 6] of the same compound?
Answer: Its IC50 is 1.13 µM.

Question: What about the EC50 [3] of the same compound?
Answer: The EC50 was 49 nM.

Question: What about the IC50 [4, 7] of the same compound?
Answer: The IC50 was 9.06 µM.

Question: How did the EC50 [1, 8] turn out when `COc1cc(P(C)(C)=O)ccc1NCC#Cc1sc2c(NC3CC(C)N(C)C(C)C3)cccc2c1CC(F)(F)F` (stereo not drawn) [Example 143, (3-methoxy-4-((3-(3-(2,2,2-trifluoroethyl)-7-((1,2,6-trimethylpiperidin-4-yl)amino)benzo[b]thiophen-2-yl)prop-2-yn-1-yl)amino)phenyl)dimethylphosphine oxide] was run?
Answer: Its EC50 is 0.45 µM.

Question: And the IC50 [2, 6]?
Answer: The IC50 was 1.94 µM.

Question: And the EC50 [3]?
Answer: Its EC50 is 106 nM.

Question: And the IC50 [4, 7]?
Answer: Its IC50 is 6.94 µM.

Question: Which results are given for `COc1cc(P(C)(C)=O)ccc1NCC#Cc1sc2c(N[C@@H]3CCN(C4CCOCC4)C[C@@H]3F)cccc2c1CC(F)(F)F` [Example 147, (4-((3-(7-(((3S,4R)-3-fluoro-1-(tetrahydro-2H-pyran-4-yl)piperidin-4-yl)amino)-3-(2,2,2-trifluoroethyl)benzo[b]thiophen-2-yl)prop-2-yn-1-yl)amino)-3-methoxyphenyl)dimethylphosphine oxide]?
Answer: EC50 [1, 5]: 0.11 µM; IC50 [2, 6]: 1.47 µM; EC50 [3]: 91 nM; IC50 [4, 7]: 6.83 µM
